What was measured:
HO-1 [1] = experiment: HO-1 expression in HCT116 (qPCR, western blot); type: cell-based, human; conditions: HCT116, CTR, vitamin C 350 μM 3 hours as single intervention
Protocol: Cells were washed twice in ice-cold PBS and lysates were prepared in RIPA lysis buffer (50 mM Tris HCl pH 7.4, 150 mM NaCl, 1% NP-40, 0.25% deoxycholic acid, 1 mM EDTA) supplemented with protease and phosphatase inhibitors (protease inhibitor cocktail set III EDTA-free, Calbiochem, Cat. #: S39134; PhosStop, Roche), Samples were sonicated (bioruptor plus, diogenode) and centrifuged at 16.1 g for 30 minutes at 4° C. Tumor tissues were collected and snap frozen in liquid nitrogen immediately after mice were sacrificed, and stored in -80° C. until use. […] Protein concentrations were determined by BCA assay (Thermo Fisher Scientific, Cat. #: 23225). Proteins were diluted in 1× Laemmli sample buffer, boiled at 95° C. for 5 minutes and 30 μg of total proteins were separated by using SDS-PAGE and analyzed by western blotting by standard procedures. […] Membranes were incubated overnight at 4° C. with gentle shaking with the following primary antibodies: […] ADI-SPA894), FTH (1:1000, Cell Signaling, Cat. #: 3998), AMPK (1:1000, Cell Signaling, Cat. #: 2532), phospho-[…] […] Bands intensity was quantified with NIH Image J software (version 1.48v). […] Resulting cDNA (1/20 v/v) was analyzed by real-time polymerase reaction (qRT-PCR) using TaqMan MBG probes with FAM reporter dyes. […]

HO-1 [2] = experiment: HO-1 protein expression in grafted HCT116 tumors; type: in vivo, mouse; conditions: ad libitum or FMD cycles, vitamin C 4 g/kg i.p. twice a day

`O=C1O[C@H]([C@@H](O)CO)C(O)=C1O` [vitamin C, ascorbic acid] was tested, and the “HO-1 mRNA and protein level” value (HO-1 [1]) was “significantly up-regulated HO-1 both at transcriptional and protein level” and the “HO-1 protein expression level in grafted tumors” value (HO-1 [2]) was “HO-1 up-regulation”.
